ChEMBL document CHEMBL1139978, “Synthesis and radiopharmacological characterization of [11C]AL-438 as a nonsteroidal ligand for imaging brain glucocorticoid receptors” (Bioorg Med Chem Lett, 2007)

How the values were obtained:
Femur [1] = experiment: Biodistribution in corticosterone pretreated Wistar rat femur at 20 MBq, iv after 5 mins; assay type: ADME, organism-based; conditions: in vivo
Blood [2] = experiment: Biodistribution in Wistar rat blood at 20 MBq, iv after 5 mins; assay type: ADME, organism-based; conditions: in vivo
Pancreas [3] = experiment: Biodistribution in corticosterone pretreated Wistar rat pancreas at 20 MBq, iv after 5 mins; assay type: ADME, organism-based; conditions: in vivo
Lung [4] = experiment: Biodistribution in corticosterone pretreated Wistar rat lung at 20 MBq, iv after 5 mins; assay type: ADME, organism-based; conditions: in vivo
Liver [5] = experiment: Biodistribution in corticosterone pretreated Wistar rat liver at 20 MBq, iv after 60 mins; assay type: ADME, organism-based; conditions: in vivo, 1 h
Pituitary gland [6] = experiment: Biodistribution in Wistar rat pituitary at 20 MBq, iv after 60 mins; assay type: ADME, organism-based; conditions: in vivo, 1 h
Rattus norvegicus [7] = experiment: Biodistribution in corticosterone pretreated Wistar rat rest of brain at 20 MBq, iv after 60 mins; assay type: ADME, organism-based; conditions: in vivo, 1 h
Hippocampus [8] = experiment: Biodistribution in corticosterone pretreated Wistar rat hippocampus at 20 MBq, iv after 60 mins; assay type: ADME, organism-based; conditions: in vivo, 1 h
Lung [9] = experiment: Biodistribution in corticosterone pretreated Wistar rat lung at 20 MBq, iv after 60 mins; assay type: ADME, organism-based; conditions: in vivo, 1 h
Cortex [10] = experiment: Biodistribution in Wistar rat cortex at 20 MBq, iv after 60 mins; assay type: ADME, organism-based; conditions: in vivo, 1 h
Liver [11] = experiment: Biodistribution in Wistar rat liver at 20 MBq, iv after 5 mins; assay type: ADME, organism-based; conditions: in vivo
Kidney [12] = experiment: Biodistribution in corticosterone pretreated Wistar rat kidney at 20 MBq, iv after 60 mins; assay type: ADME, organism-based; conditions: in vivo, 1 h
Blood [13] = experiment: Biodistribution in corticosterone pretreated Wistar rat blood at 20 MBq, iv after 5 mins; assay type: ADME, organism-based; conditions: in vivo
Spleen [14] = experiment: Biodistribution in corticosterone pretreated Wistar rat spleen at 20 MBq, iv after 60 mins; assay type: ADME, organism-based; conditions: in vivo, 1 h
Rattus norvegicus [15] = experiment: Biodistribution in Wistar rat rest of brain at 20 MBq, iv after 60 mins; assay type: ADME, organism-based; conditions: in vivo, 1 h
Cortex [16] = experiment: Biodistribution in corticosterone pretreated Wistar rat cortex at 20 MBq, iv after 5 mins; assay type: ADME, organism-based; conditions: in vivo
Adrenal = experiment: Biodistribution in corticosterone pretreated Wistar rat adrenal at 20 MBq, iv after 5 mins; assay type: ADME, organism-based, Adrenal tissue; conditions: in vivo
Heart [17] = experiment: Biodistribution in corticosterone pretreated Wistar rat heart at 20 MBq, iv after 5 mins; assay type: ADME, organism-based; conditions: in vivo
Spleen [18] = experiment: Biodistribution in Wistar rat spleen at 20 MBq, iv after 5 mins; assay type: ADME, organism-based; conditions: in vivo
Femur [19] = experiment: Biodistribution in Wistar rat femur at 20 MBq, iv after 5 mins; assay type: ADME, organism-based; conditions: in vivo
Rattus norvegicus [20] = experiment: Biodistribution in corticosterone pretreated Wistar rat rest of brain at 20 MBq, iv after 5 mins; assay type: ADME, organism-based; conditions: in vivo
Blood [21] = experiment: Biodistribution in corticosterone pretreated Wistar rat blood at 20 MBq, iv after 60 mins; assay type: ADME, organism-based; conditions: in vivo, 1 h
Rattus norvegicus [22] = experiment: Biodistribution in corticosterone pretreated Wistar rat brown fat at 20 MBq, iv after 5 mins; assay type: ADME, organism-based, Brown adipose tissue; conditions: in vivo
Heart [23] = experiment: Biodistribution in corticosterone pretreated Wistar rat heart at 20 MBq, iv after 60 mins; assay type: ADME, organism-based; conditions: in vivo, 1 h
Blood [24] = experiment: Biodistribution in Wistar rat blood at 20 MBq, iv after 60 mins; assay type: ADME, organism-based; conditions: in vivo, 1 h
Rattus norvegicus [25] = experiment: Biodistribution in corticosterone pretreated Wistar rat testis at 20 MBq, iv after 5 mins; assay type: ADME, organism-based; conditions: in vivo
Rattus norvegicus [26] = experiment: Biodistribution in corticosterone pretreated Wistar rat brown fat at 20 MBq, iv after 60 mins; assay type: ADME, organism-based, Brown adipose tissue; conditions: in vivo, 1 h
Hippocampus [27] = experiment: Biodistribution in corticosterone pretreated Wistar rat hippocampus at 20 MBq, iv after 5 mins; assay type: ADME, organism-based; conditions: in vivo
Harderian gland [28] = experiment: Biodistribution in Wistar rat harderian gland at 20 MBq, iv after 60 mins; assay type: ADME, organism-based; conditions: in vivo, 1 h
Pancreas [29] = experiment: Biodistribution in Wistar rat pancreas at 20 MBq, iv after 5 mins; assay type: ADME, organism-based; conditions: in vivo
Pituitary gland [30] = experiment: Biodistribution in Wistar rat pituitary at 20 MBq, iv after 5 mins; assay type: ADME, organism-based; conditions: in vivo
Femur [31] = experiment: Biodistribution in corticosterone pretreated Wistar rat femur at 20 MBq, iv after 60 mins; assay type: ADME, organism-based; conditions: in vivo, 1 h
Kidney [32] = experiment: Biodistribution in Wistar rat kidney at 20 MBq, iv after 5 mins; assay type: ADME, organism-based; conditions: in vivo
Pancreas [33] = experiment: Biodistribution in Wistar rat pancreas at 20 MBq, iv after 60 mins; assay type: ADME, organism-based; conditions: in vivo, 1 h
Cortex [34] = experiment: Biodistribution in corticosterone pretreated Wistar rat cortex at 20 MBq, iv after 60 mins; assay type: ADME, organism-based; conditions: in vivo, 1 h
Cerebellum [35] = experiment: Biodistribution in corticosterone pretreated Wistar rat cerebellum at 20 MBq, iv after 5 mins; assay type: ADME, organism-based; conditions: in vivo
Hippocampus [36] = experiment: Biodistribution in Wistar rat hippocampus at 20 MBq, iv after 60 mins; assay type: ADME, organism-based; conditions: in vivo, 1 h
Rattus norvegicus [37] = experiment: Biodistribution in Wistar rat brown fat at 20 MBq, iv after 5 mins; assay type: ADME, organism-based, Brown adipose tissue; conditions: in vivo
Cerebellum [38] = experiment: Biodistribution in Wistar rat cerebellum at 20 MBq, iv after 5 mins; assay type: ADME, organism-based; conditions: in vivo
Harderian gland [39] = experiment: Biodistribution in corticosterone pretreated Wistar rat harderian gland at 20 MBq, iv after 5 mins; assay type: ADME, organism-based; conditions: in vivo

Compound: C=CCC1Oc2cccc(O[11CH3])c2-c2ccc3c(c21)C(C)=CC(C)(C)N3 (stereo not given)
- Drug uptake (Femur [1]): 0.85 % ID/g
- Drug uptake (Blood [2]): 0.52 % ID/g
- Drug uptake (Pancreas [3]): 2.81 % ID/g
- Drug uptake (Lung [4]): 1.44 % ID/g
- Drug uptake (Liver [5]): 3.84 % ID/g
- Drug uptake (Pituitary gland [6]): 1.77 % ID/g
- Drug uptake (Rattus norvegicus [7]): 0.61 % ID/g
- Drug uptake (Hippocampus [8]): 0.68 % ID/g
- Drug uptake (Lung [9]): 1.03 % ID/g
- Drug uptake (Cortex [10]): 0.6 % ID/g
- Drug uptake (Liver [11]): 2.65 % ID/g
- Drug uptake (Kidney [12]): 1.13 % ID/g
- Drug uptake (Blood [13]): 0.52 % ID/g
- Drug uptake (Spleen [14]): 0.91 % ID/g
- Drug uptake (Rattus norvegicus [15]): 0.56 % ID/g
- Drug uptake (Cortex [16]): 1.55 % ID/g
- Drug uptake (Adrenal): 8.68 % ID/g
- Drug uptake (Heart [17]): 1.91 % ID/g
- Drug uptake (Spleen [18]): 0.97 % ID/g
- Drug uptake (Femur [19]): 0.9 % ID/g
- Drug uptake (Rattus norvegicus [20]): 1.46 % ID/g
- Drug uptake (Blood [21]): 0.74 % ID/g
- Drug uptake (Rattus norvegicus [22]): 5 % ID/g
- Drug uptake (Heart [23]): 0.67 % ID/g
- Drug uptake (Blood [24]): 0.6 % ID/g
- Drug uptake (Rattus norvegicus [25]): 0.43 % ID/g
- Drug uptake (Rattus norvegicus [26]): 7.44 % ID/g
- Drug uptake (Hippocampus [27]): 1.35 % ID/g
- Drug uptake (Harderian gland [28]): 3.35 % ID/g
- Drug uptake (Pancreas [29]): 2.79 % ID/g
- Drug uptake (Pituitary gland [30]): 2.49 % ID/g
- Drug uptake (Femur [31]): 0.7 % ID/g
- Drug uptake (Kidney [32]): 1.72 % ID/g
- Drug uptake (Pancreas [33]): 1.99 % ID/g
- Drug uptake (Cortex [34]): 0.74 % ID/g
- Drug uptake (Cerebellum [35]): 1.46 % ID/g
- Drug uptake (Hippocampus [36]): 0.61 % ID/g
- Drug uptake (Rattus norvegicus [37]): 5.22 % ID/g
- Drug uptake (Cerebellum [38]): 1.39 % ID/g
- Drug uptake (Harderian gland [39]): 1.65 % ID/g
